Where “and” joins values, the source holds several entries; their conditions need not be identical. Identical values can stand only once. Like-named read-outs stand apart in the source and are kept apart here. Values belong to the compound of their own block, whether it stands above or below them.
Columns and labels:
CYPA = biological target: T1, CYPA (Homo sapiens, UniProt P62937); test: CYPA binding affinity (Kd1), SPR; details: steady state, (95% CI)
T1 construct: His6-TEV-AviTag-CYPA (full-length); His6-TEV (N); made in house; host or cells: BL21(DE3) Escherichia coli
Procedure: The binding affinity of compounds for CYPA (Kd1) was assessed by SPR on a Biacore 8K instrument as previously described.

Capan-1 cells [1] = test: Cellular ERK phosphorylation (pERK); type: cell-based; details: Homo sapiens; Capan-1 (KRAS^G12V PDAC); (95% CI)
A375 cells [2] = test: Cellular ERK phosphorylation (pERK); type: cell-based, human; details: Homo sapiens, A-375; A375 (BRAF^V600E)
Capan-1 cells [3] = test: Cell proliferation (CTG); type: cell-based; details: Homo sapiens; Capan-1, CTG; (95% CI)
Procedure: (§1) Alternatively, cells were seeded in round-bottom ultra-low attachment 96-well plates, centrifuged at 1,000 rpm for 10 min to pellet the cells, and incubated overnight or up to 72 h to allow for 3D spheroid formation. […] Cell viability was determined by CellTiter-Glo 2.0 reagent (2D CTG) (Promega, G9243) or 3D CellTiter-Glo reagent (3D CTG) (Promega, G9683) according to the manufacturer’s protocols. Luminescence was detected using a SpectraMax M5 Plate Reader (Molecular Devices) of Perkin Elmer Enspire. Luminescence signal was normalized to vehicle-treated wells (normalized signal (%) = (luminescence (treated)/mean luminescence (vehicle)) × 100%). […] Data were plotted as log [inhibitor (M)], and a four-parameter sigmoidal concentration response model was fitted to the data to calculate EC50. […] Pa16C MEK1 mutant cells were evaluated by live-cell counting using Calcein AM and a SpectraMax i3X multi-mode detection platform (Molecular Devices). Growth percentages were calculated by normalizing the treated cell counts to their respective untreated cell counts.

A375 cells [4] = test: Cell proliferation (CTG); type: cell-based, human; details: Homo sapiens, A-375; A375, CTG; (95% CI)
Procedure: as §1

[5] = Oral bioavailability in mice (LC-MS/MS of blood); type: in vivo; details: mouse, whole blood, read-out: Oral Bioavailability m%F
KRAS^G12V = KRAS^G12V (Homo sapiens, UniProt P01116+P62937, G12V); test: RAS binding affinity of compound-bound CYPA (Kd2), SPR; parameters: His6-TEV (N); made in house; host or cells: BL21(DE3) Escherichia coli; details: steady state, (95% CI)
[6] = tested on: NCI-H441, HPAC and SW620 CDX models; test: CDX models, RMC-7977 versus SHP2 and MEK inhibitors; details: three KRAS^G12X models; RMC-7977 10 mg kg^−1 once daily, RMC-4550 20 mg kg^−1 every 2 days, cobimetinib 2.5 mg kg^−1 once daily, alone or in combination
[7] = tested on: Pa16C cells expressing MEK1 mutants; test: Proliferation (Calcein AM) of Pa16C cells expressing MEK1 mutants; type: cell-based, human
[8] = tested on: AsPC-1 and NCI-H441 cells; test: pERK (MSD) and proliferation (CTG) in AsPC-1 and NCI-H441 cells, CYPA inhibitor co-treatment or PPIA KO; type: cell-based, human; details: for activity at 0.00046 µM: 0.46 nM
RAS-less MEFs = test: Western blots of isogenic RAS-less MEF cells expressing KRAS variants or BRAF(V600E); type: cell-based, mouse; details: 24 h, western blot

Kd (CYPA): 330 nM
EC50 (Capan-1 cells [1]): 31.6 nM
EC50 (A375 cells [2]): > 10000 nM
EC50 (A375 cells [4]): > 10000 nM
bioavailability [5]: 0.4%
SMILES: CCn1c(-c2cccnc2[C@H](C)OC)c2c3cc(ccc31)-c1csc(n1)C[C@H](NC(=O)[C@H](C(C)C)N(C)C(C)=O)C(=O)N1CCC[C@H](N1)C(=O)OCC(C)(C)C2 [Compound 2]
EC50 (Capan-1 cells [3]): 149 nM

Kd (CYPA): 6270 nM
EC50 (Capan-1 cells [1]): 124 nM
EC50 (A375 cells [2]): > 10000 nM
EC50 (A375 cells [4]): > 10000 nM
bioavailability [5]: 44%
Kd (KRAS^G12V): 818 nM
SMILES: CCn1c(-c2cccnc2[C@H](C)OC)c2c3cc(ccc31)-c1csc(n1)C[C@H](NC(=O)[C@H]1CCO1)C(=O)N1CCC[C@H](N1)C(=O)OCC(C)(C)C2 [Compound 3]
EC50 (Capan-1 cells [3]): 615 nM

Kd (CYPA): 605 nM
EC50 (Capan-1 cells [1]): 1.94 nM
EC50 (A375 cells [2]): > 10000 nM
EC50 (A375 cells [4]): 6950 nM
Kd (KRAS^G12V): 292 nM
SMILES: CCn1c(-c2cc(N3CCN(C)CC3)cnc2[C@H](C)OC)c2c3cc(ccc31)-c1csc(n1)C[C@H](NC(=O)[C@H]1CCO1)C(=O)N1CCC[C@H](N1)C(=O)OCC(C)(C)C2 [Compound 4]
EC50 (Capan-1 cells [3]): 14.2 nM

SMILES: Cc1nc(N2CCC3(CC2)CO[C@@H](C)[C@H]3N)c(CO)nc1-c1cccc(Cl)c1Cl [RMC-4550]
anti-tumour activity [6]: only modest tumour growth inhibition

SMILES: O=C(Nc1ccc2[nH]nc(-c3ccncc3)c2c1)[C@@H]1CCN(CC(=O)N2CCN(c3ccc(-c4ncccn4)cc3)CC2)C1 [SCH772984]
Proliferation of Pa16C cells expressing MEK1 mutant constructs ([7]; MEK1E102-I103del, inhibitor 0.046 nM): 102.4 and 93.7 and 111.1 and 109.2
Proliferation of Pa16C cells expressing MEK1 mutant constructs ([7]; MEK1E102-I103del, inhibitor 0.412 nM): 88.7 and 97.2 and 116.5 and 112.2
Proliferation of Pa16C cells expressing MEK1 mutant constructs ([7]; MEK1E102-I103del, inhibitor 1.235 nM): 62.5 and 77.2 and 97.3 and 86.7
Proliferation of Pa16C cells expressing MEK1 mutant constructs ([7]; MEK1K57N, inhibitor 0.046 nM): 116 and 117.1 and 131.7 and 130.6
Proliferation of Pa16C cells expressing MEK1 mutant constructs ([7]; MEK1K57N, inhibitor 0.412 nM): 139 and 146.7 and 118.9 and 144.8
Proliferation of Pa16C cells expressing MEK1 mutant constructs ([7]; MEK1K57N, inhibitor 1.235 nM): 153.6 and 157.6 and 123.4 and 129.5
Proliferation of Pa16C cells expressing MEK1 mutant constructs ([7]; MEK1K57N, inhibitor 3.704 nM): 116.2 and 140.9 and 100.4 and 107.4
Proliferation of Pa16C cells expressing MEK1 mutant constructs ([7]; MEK1K57N, inhibitor 11.111 nM): 83.1 and 119.2 and 75.2 and 67
Proliferation of Pa16C cells expressing MEK1 mutant constructs ([7]; MEK1Q56P, inhibitor 0.046 nM): 136.2 and 107 and 127.7 and 113.2
Proliferation of Pa16C cells expressing MEK1 mutant constructs ([7]; MEK1Q56P, inhibitor 0.412 nM): 178.1 and 122.6 and 149.9 and 115.3
Proliferation of Pa16C cells expressing MEK1 mutant constructs ([7]; MEK1Q56P, inhibitor 1.235 nM): 166.6 and 134 and 125.8 and 104.6
Proliferation of Pa16C cells expressing MEK1 mutant constructs ([7]; MEK1Q56P, inhibitor 3.704 nM): 131.2 and 128.6 and 108.4 and 83.5
Proliferation of Pa16C cells expressing MEK1 mutant constructs ([7]; MEK1S218D/S222D, inhibitor 0.046 nM): 105.3 and 97.5 and 108.4 and 102.6
Proliferation of Pa16C cells expressing MEK1 mutant constructs ([7]; MEK1S218D/S222D, inhibitor 0.412 nM): 90.3 and 97.7 and 107.5 and 108.3
Proliferation of Pa16C cells expressing MEK1 mutant constructs ([7]; MEK1S218D/S222D, inhibitor 1.235 nM): 59.2 and 93.4 and 100.5 and 90.2
Proliferation of Pa16C cells expressing MEK1 mutant constructs ([7]; MEK1WT, inhibitor 0.046 nM): 113.6 and 107.4 and 114.6 and 111.6
Proliferation of Pa16C cells expressing MEK1 mutant constructs ([7]; MEK1WT, inhibitor 0.412 nM): 127.4 and 95.8 and 106.8 and 108.8
Proliferation of Pa16C cells expressing MEK1 mutant constructs ([7]; MEK1WT, inhibitor 1.235 nM): 95.9 and 89.3 and 90.3 and 82.4
Proliferation of Pa16C cells expressing MEK1 mutant constructs ([7]; MEK1WT, inhibitor 3.704 nM): 49.4 and 66.6 and 61 and 49.7
Proliferation of Pa16C cells expressing MEK1 mutant constructs ([7]; MEK1WT, inhibitor 11.111 nM): 29.9 and 38 and 33.3 and 24.2

SMILES: O=C(c1ccc(F)c(F)c1Nc1ccc(I)cc1F)N1CC(O)([C@@H]2CCCCN2)C1 [cobimetinib]
anti-tumour activity [6]: only modest tumour growth inhibition

SMILES: CC(=O)Nc1cccc(-n2c(=O)n(C3CC3)c(=O)c3c(Nc4ccc(I)cc4F)n(C)c(=O)c(C)c32)c1 [trametinib, reference compound]
effect of disruption of the PPIA locus on sensitivity ([8]; AsPC-1 and NCI-H441, pERK and proliferation): did not affect sensitivity
activity at 16.9 pM ([8]; Homo sapiens, ASPC1, AsPC-1, […], read-out: pERK inhibition in PPIA KO cells treated with trametinib): 106%
activity at 0.00046 µM ([8]; Homo sapiens, ASPC1, AsPC-1 PPIA KO, read-out: pERK inhibition in PPIA KO cells treated with trametinib): 47%
activity at 0.00412 µM ([8]; Homo sapiens, ASPC1, AsPC-1 PPIA KO, 4.12 nM, read-out: Proliferation inhibition in PPIA KO cells treated with trametinib): 25.5%
activity at 0.037 µM ([8]; Homo sapiens, ASPC1, AsPC-1 PPIA KO, 37.00 nM, read-out: Proliferation inhibition in PPIA KO cells treated with trametinib): 9.16%
activity at 0.333 µM ([8]; Homo sapiens, ASPC1, AsPC-1 PPIA KO, 333.00 nM, read-out: Proliferation inhibition in PPIA KO cells treated with trametinib): 4.83%
activity at 50 pM ([8]; Homo sapiens, NCI-H441, NCI-H441, 0.05 nM, read-out: Proliferation inhibition in PPIA KO cells treated with trametinib): 120%
activity at 0.00412 µM ([8]; Homo sapiens, NCI-H441, NCI-H441, 4.12 nM, read-out: Proliferation inhibition in PPIA KO cells treated with trametinib): 49.5%
activity at 0.037 µM ([8]; Homo sapiens, NCI-H441, NCI-H441, 37.00 nM, read-out: Proliferation inhibition in PPIA KO cells treated with trametinib): 44.6%
activity at 0.333 µM ([8]; Homo sapiens, NCI-H441, NCI-H441, 333.00 nM, read-out: Proliferation inhibition in PPIA KO cells treated with trametinib): 42.2%
activity at 1 µM ([8]; Homo sapiens, NCI-H441, NCI-H441, 1000.00 nM, read-out: Proliferation inhibition in PPIA KO cells treated with trametinib): 35.6%
activity at 0.00046 µM ([8]; Homo sapiens, NCI-H441, NCI-H441 PPIA KO, read-out: pERK inhibition in PPIA KO cells treated with trametinib): 59%
activity at 0.00412 µM ([8]; Homo sapiens, NCI-H441, NCI-H441 PPIA KO, 4.12 nM, read-out: Proliferation inhibition in PPIA KO cells treated with trametinib): 47%
activity at 0.037 µM ([8]; Homo sapiens, NCI-H441, NCI-H441 PPIA KO, 37.00 nM, read-out: Proliferation inhibition in PPIA KO cells treated with trametinib): 40.9%
activity at 0.333 µM ([8]; Homo sapiens, NCI-H441, NCI-H441 PPIA KO, 333.00 nM, read-out: Proliferation inhibition in PPIA KO cells treated with trametinib): 37.7%
activity at 1 µM ([8]; Homo sapiens, NCI-H441, NCI-H441 PPIA KO, 1000.00 nM, read-out: Proliferation inhibition in PPIA KO cells treated with trametinib): 28.5%
pERK suppression in RAS-less MEFs (RAS-less MEFs): reduced pERK similarly in all cells

Reference: publication PMC11111408, “Concurrent inhibition of oncogenic and wild-type RAS-GTP for cancer therapy” (Nature, 2024)
